# Patent US20220226382A1, “Nutritional Composition” (MORINAGA MILK INDUSTRY CO., LTD., priority 2019, published 2022)
# Test system: simian rotavirus SA11 strain
# Test: Plaque assay: antiviral action against simian rotavirus in MA104 cells (infection-suppressing ratio)
# Type: cell-based
# Settings: human milk oligosaccharide alone, n=3
# Protocol: The simian rotavirus SA11 strain (Nihon Bioresearch Inc.) was inoculated to the MA104 cells (Sigma-Aldrich) of African green monkey kidney maintained in a minimum essential medium (Sigma-Aldrich, henceforth referred to simply as “medium”). The simian rotavirus SA11 strain, for example, can be obtained from American Type Culture Collection (ATCC) as ATCC VR-1565. To the medium, lactoferrin (LF) and/or the human milk oligosaccharide(s) shown below were added beforehand alone or in combination at the following concentrations, respectively (n=3).
# LF (produced by Morinaga Milk Industry Co., Ltd.): 0, 0.1 or 1.0 mg/mL
# 2′-Fucosyllactose (2′-FL, Funakoshi Co., Ltd.): 0, 0.1, 0.5, or 2.5 mg/mL
# 3-Fucosyllactose (3-FL, Funakoshi Co., Ltd.): 0, 0.1, or 0.5 mg/mL
# 3′-Sialyllactose (3′-SL, Funakoshi Co., Ltd.): 0, 0.1, or 0.5 mg/mL
# 6′-Sialyllactose (6′-SL, Funakoshi Co., Ltd.): 0, 0.1, or 0.5 mg/mL
# Human milk oligosaccharides (mixture) (HMO mix, mixture of 2′-FL (2.5 mg/mL), 3-FL (0.5 mg/mL), 3′-SL (0.25 mg/mL) and 6′-SL (0.5 mg/mL))
# The amount of 1.0 mg/mL corresponds to 0.1 mass % in mass percentage.
# Degree of infection was evaluated based on the number of “plaques” formed when the cells were infected with the virus. Specifically, the antiviral effects of lactoferrin and human milk oligosaccharides were evaluated based on “plaque-suppressing ratio (%)”, i.e., the ratio of “plaque counts observed with lactoferrin and/or human milk oligosaccharide(s) supplementation” to “plaque counts observed without these supplementation”. Plaque-suppressing ratio was then regarded as “infection-suppressing ratio (%)”.
compound,measurement,setting,value
2′-Fucosyllactose [2′-FL],infection-suppressing ratio,0.1 mg/mL,1.2%
3-Fucosyllactose [3-FL],infection-suppressing ratio,0.1 mg/mL,6.6%
same,infection-suppressing ratio,0.5 mg/mL,21%
"CC(=O)N[C@H]1[C@H]([C@H](O)[C@H](O)CO)O[C@@](O[C@H]2[C@@H](O)[C@@H](CO)O[C@@H](O[C@H]3[C@H](O)[C@@H](O)C(O)O[C@@H]3CO)[C@@H]2O)(C(=O)O)C[C@@H]1O (stereo partly drawn) [3′-SL, 3′-Sialyllactose]",infection-suppressing ratio,0.5 mg/mL,33%
"CC(=O)N[C@H]1[C@H]([C@H](O)[C@H](O)CO)O[C@@](OC[C@H]2O[C@@H](O[C@H]3[C@H](O)[C@@H](O)[C@H](O)O[C@@H]3CO)[C@H](O)[C@@H](O)[C@H]2O)(C(=O)O)C[C@@H]1O [6′-SL, 6′-Sialyllactose]",infection-suppressing ratio,0.1 mg/mL,4.5%
same,infection-suppressing ratio,0.5 mg/mL,23%
